These results are taken from patent publication US12516038B2, “Inhibitors of antigen presentation by HLA-DR” (Janssen Pharmaceutica NV, priority 2020, dated 2026).

Test [1] deals with HLA-DR4 restricted mouse T cell hybridoma line (DR4.CII.36.8) with HLA-DRB1*04:01-expressing Boleth cells. The test can be described thus: HLA-DR4-restricted peptide-specific T cell-based assay (hybridoma assay). Conditions: Mus musculus, T-cell, 6 h, inhibition of IL-2 production, CII259-273 peptide presented by Boleth cells. An excerpt:
(§1) The screening was made through two sets of HLA-DR/peptide-dependent assays: a peptide-dependent Homogeneous Time Resolved Fluorescence (HTRF) binding assay followed by an HLA-DR dependent, peptide-specific T cell functional assay (HLA-DR4-restricted peptide-specific T cell-based assay hybridoma assay). The HTRF binding assay was designed to measure the ability of the small molecule to inhibit the loading of a fluorescently labeled high-affinity peptide onto HLA-DR peptide binding groove. The peptide-specific T cell functional assay assesses T cell activation resulting from proper peptide presentation onto HLA-DR expressed on the surface of the antigen-presenting cells to the T cell and is used to screen compounds able to inhibit such HLA-DR/peptide-dependent T cell activation.
HLA-DR4-Restricted Peptide-Specific T Cell-Based Assay (Hybridoma Assay)
The hybridoma assay was used to measure compound inhibition of TL-2 production from an HLA-DR4 restricted mouse T cell hybridoma line (DR4.CII.36.8) that was antigen-specific for collagen II259-273 (CII259-273) peptide when presented with an HLA-DR4 expressing Antigen Presenting Cell (APC) cell line (i.e., Boleth).
To the HLA-DRB1*04:01-expressing B cell line (Boleth cell line from International Histocompatibility Working Group (IHWG), ref #IHW09031) was presented the collagen II 259-273 peptide (CII259-273, GIAGFKGEQGPKGEP) to mouse T cell hybridoma (DR4.CII.36.8 T cell hybridoma; clone 36.8, expressing a CII259-273-specific, HLA-DRB1*04:01-restricted T cell receptor). Upon proper CII259-273 peptide presentation, the T cell hybridoma was activated and thus produced IL-2 cytokine, whose level in the cell culture supernatant was detected using mouse IL-2 AlphaLISA kit (Perkin Elmer, Cat: AL511F).
This assay was performed in a 384-well plate (polypropylene V-bottom Greiner bio-one, ref #784075) by: (i) pre-incubation of 20 μL of 1.25 million/mL Boleth cells (25,000 cells) resuspended in DMEM/1% fetal calf serum (FCS; Gibco, ref #16140-071) with 20 μL of 2.5× final concentration of compound of interest in DMEM/1% serum/0.75% DMSO at 37° C. for 1 hr in the incubator, then (ii) 10 μL of 5 million/mL (50,000 cells) DR4.CII.36.8 T cell hybridoma cells resuspended in DMEM/1% FCS was added and incubated for 6 h at 37° C. in the incubator. Supernatant was then collected and mouse IL-2 detected using AlphaLISA kit (ref #AL511F). Compounds were tested in duplicate, with 8-point titration. Mean±SD of AlphaLISA units at each compound concentration was used for compound IC50 calculation. The negative control for this experiment was run without peptide stimulation and used a DMSO vehicle wherein no compound of interest was added. The positive control was run with peptide stimulation and used a DMSO vehicle wherein no compound of interest was added. Both the negative and positive controls were run in 8 replicates each. Curve fitting and IC50 calculation for dose response data was performed by GraphPad software 6 or higher (GraphPad Software, San Diego, CA). Dose response data was plotted versus the log of compound concentration and IC50 was determined using 4-parameter logistic (4-PL) curve fitting.

The target of another test is HLA-DRB1*0401 (Homo sapiens (Human), UniProt P01903+P01911, A100K/A169T/DEL228-266/F76Y/I96L/K127E/L162R/M171V/N62H/P40V/Q125Y/R42H/S133A/S149N/S66Y/V115G/V209L/W38E). The test can be described thus: HLA-DR4 HTRF assay. It is filed as binding. The conditions noted are these: inhibition of loading of Alexa Fluor 647-labeled Cit-CII peptide onto HLA-DR4 (CLIP cleaved).
From the text: as §1
The HLA-DR4 HTRF assay is based on HTRF technology and designed to measure ability of compounds to prevent loading of high-affinity Alexa Fluor 647-labeled Citrullinated Collagen 111236-1249 peptide (named Cit-CII/AF647, aa1236-1249, LQYM-Cit-ADQAAGGLR; Alexa Fluor 647 dye commercially available from Invitrogen) onto HLA-DRB1*0401. The HTRF assay technology is based on the energy transfer between two fluorophores, a donor and an acceptor, when in close proximity. The HLA-DR4 protein construct was uniquely designed for this assay and has (i) the α and […] subunits fused to human Fc chains and (ii) the invariant chain-associated peptide (CLIP peptide, aa85-101), the universal moderate/low-affinity HLA-DR binder, attached to the beta chain through a HRV3C protease-cleavable linker.
Because of the low stability of peptide free HLA-DR4 heterodimer, the construct was purified and delivered with CLIP peptide attached to the N-terminal of the β chain. The HLA-DR4 heterodimer was pre-treated with 3 μL HRV3C protease (Novagen E71493-3) (˜2 U/μL) per mg of the cleavable protein to cleave CLIP peptide and incubated overnight (>16 hrs) at 4° C. This method yielded at least 80% cleavage and allowed the CLIP peptide to be potentially exchanged with the fluorescently labeled high affinity cit-CII1236-1249 peptide. A batch of […] protein with CLIP cleaved was prepared for multiple experiments and was stable for several months when stored at 4° C.
In this assay, anti-human Fc antibody labeled with Tb-Cryptate probe was used as the donor (commercially available from Cisbio—PAb Anti-human IgG-Tb Cryptate, Cat #61HFCTAB) and high affinity peptide Citrullinated CII (cit-CII) labeled with Alexa 647 fluorophore was utilized as the acceptor. Inhibitors of the exchange of the pre-cleaved CLIP peptide for the high affinity cit-CII1236-1249 peptide onto HLA-DRB1*04:01 caused a decrease in HTRF signal as measured by the ratio of the 665 nm/620 nm emitted signal. Screening compounds were robotically pre-dispensed (150 nL, Hummingbird, DigiLab/CyBio AG) onto black, round bottom, nontreated, 1536-well assay plates (Corning #3939), were incubated with 3 nM HLA-DR4 (with CLIP cleaved) plus 1 nM Human IgG-Tb (anti-Fc-Tb) Antibody for 45 min prior to addition of 40 nM Cit-CII peptide labeled with Alexa-647. The negative control was DMSO plus 1 nM Human IgG-Tb (anti-Fc-Tb) Antibody, incubated for 45 minutes before addition of 40 nM Cit-CII peptide labeled with Alexa-647. The positive control was DMSO plus 3 nM HLA-DR4 (with CLIP cleaved) plus 1 nM Human IgG-Tb (anti-Fc-Tb) Antibody with 40 nM Cit-CII peptide labeled with Alexa-647 added after a 45-minute incubation. Plates were centrifuged at 1000 rpm for 1 minute and then incubated at 37° C., at 90% relative humidity for 90 minutes. After incubation, plates were read on a spectrophotometer, the Pherastar FS (BMG Labtech), in HTRF mode. The HTRF ratio as well as percent inhibition was calculated. Curve fitting and IC50 calculation for dose response data was performed by Microsoft Excel, 3DX (Janssen proprietary software) or Graphpad Prism (Graphpad Software, San Diego, CA). […]
A general note: In TR-FRET formats the signal depends on donor and acceptor labels being close together.

Regarding `Cc1c(O[C@@H](c2ccncc2)c2ccc(C(N)=O)c(F)c2)c(F)cc2c1OCCC2=O` (single isomer, unassigned) [Example 95b, (*S)-2-fluoro-4-(((6-fluoro-8-methyl-4-oxochroman-7-yl)oxy)(pyridin-4-yl)methyl)benzamide], the IC50 (in general, the midpoint of a concentration-inhibition curve) in test [1] stood at 1.1 µM; against HLA-DRB1*0401, 0.22 µM. With `Cc1cc2c(c(C)c1O[C@H](c1ccc(F)cc1)c1ccc(C(N)=O)cc1)OCCC2=O` (single isomer, unassigned) [Example 90b, (*S)-4-(((6,8-dimethyl-4-oxochroman-7-yl)oxy)(4-fluorophenyl)methyl)benzamide], the IC50 in test [1] is 7.4 µM; against HLA-DRB1*0401, 0.59 µM. For `NC(=O)c1ccc(C(Oc2ccc3c(c2)OCCC3=O)c2ccnc(C(F)(F)F)c2)cc1` (single isomer, unassigned) [Example 18a, (*R)-4-(((4-oxochroman-7-yl)oxy)(2-(trifluoromethyl)pyridin-4-yl)methyl)benzamide] the same measures were > 15 µM and 1.4 µM. On to `COc1c(O[C@H](c2ccncc2)c2ccc(C(N)=O)cc2)ccc2c1OCCC2=O` (single isomer, unassigned) [Example 100b, (*S)-4-(((8-methoxy-4-oxochroman-7-yl)oxy)(pyridin-4-yl)methyl)benzamide], for which the IC50 turned out to be 2.3 µM in test [1] and 9 µM at HLA-DRB1*0401. Take `NC(=O)c1ccc([C@H](Oc2cc3c(cc2F)C(=O)CCO3)c2ccncc2)cc1` (single isomer, unassigned) [Example 52b, (*S)-4-(((6-Fluoro-4-oxochroman-7-yl)oxy)(pyridin-4-yl)methyl)benzamide]: the results for the IC50 (in test [1]; against HLA-DRB1*0401) were 8.5 µM and 0.3 µM, respectively. The corresponding values for `Cc1c(O[C@@H]2CCCc3cc(C(N)=O)ccc32)ccc2c1OCCC2=O` (single isomer, unassigned) [Example 123a, (*R)-5-((8-methyl-4-oxochroman-7-yl)oxy)-5,6,7,8-tetrahydronaphthalene-2-carboxamide] are 7.9 µM and 0.63 µM. For the molecule `NC(=O)c1ccc([C@@H](Oc2ccc3c(c2)OCCC3=O)c2ccncn2)cc1` (single isomer, unassigned) [Example 33a, (*R)-4-(((4-Oxochroman-7-yl)oxy)(pyrimidin-4-yl)methyl)benzamide], the IC50 in test [1] came out at 8.7 µM; on HLA-DRB1*0401 it was 0.58 µM.

On to `NC(=O)c1ccc([C@@H](Oc2ccc3c(c2)OCCC3=O)c2ccncc2)c2ccccc12` (single isomer, unassigned) [Example 98b, (*S)-4-(((4-oxochroman-7-yl)oxy)(pyridin-4-yl)methyl)-1-naphthamide], for which the IC50 is > 15 µM in test [1] and 10 µM on HLA-DRB1*0401. As to `Cc1c(O[C@H](c2ccncc2)c2ccc(S(C)(=O)=O)cc2)c(F)cc2c1OCCC2=O` (single isomer, unassigned) [Example 104b, (*S)-6-fluoro-8-methyl-7-((4-(methylsulfonyl)phenyl)(pyridin-4-yl)methoxy)chroman-4-one], the IC50 in test [1] amounted to 1.1 µM; against HLA-DRB1*0401, 0.23 µM.

Consider `Cc1cc([C@H](Oc2ccc3c(c2)OCCC3=O)c2ccncc2)ccc1C(N)=O` (single isomer, unassigned) [Example 35b, (*S)-2-methyl-4-(((4-oxochroman-7-yl)oxy)(pyridin-4-yl)methyl)benzamide], for which the IC50 in test [1] came to 5.2 µM; at HLA-DRB1*0401, 0.83 µM. The corresponding values for `Cc1c(O[C@@H](c2ccc(C#N)cc2)c2ccc(C(N)=O)cc2)ccc2c1OCCC2=O` (single isomer, unassigned) [Example 59b, (*S)-4-((4-cyanophenyl)((8-methyl-4-oxochroman-7-yl)oxy)methyl)benzamide] are > 15 µM and 1.3 µM. For the molecule `Cc1cc(C(N)=O)ccc1[C@@H](Oc1ccc2c(c1)OCCC2=O)c1ccncc1` (single isomer, unassigned) [Example 36b, (*S)-3-methyl-4-(((4-oxochroman-7-yl)oxy)(pyridin-4-yl)methyl)benzamide], the IC50 in test [1] came out at 5.1 µM; against HLA-DRB1*0401 it was 0.57 µM. For `Cc1c(O[C@H](c2ccc(F)cc2)c2ccc(C(N)=O)cc2)ccc2c1OCCC2=O` (single isomer, unassigned) [Example 66b, (*S)-4-((4-Fluorophenyl)((8-methyl-4-oxochroman-7-yl)oxy)methyl)benzamide] the same measures were > 15 µM and 2.4 µM.

Consider `Cc1cc([C@@H](Oc2ccc3c(c2C(C)C)OCCC3=O)c2ccc(C(N)=O)cc2)cc(C)n1` (single isomer, unassigned) [Example 106b, (*S)-4-((2,6-dimethylpyridin-4-yl)((8-isopropyl-4-oxochroman-7-yl)oxy)methyl)benzamide], for which the IC50 in test [1] came out at 0.37 µM; against HLA-DRB1*0401, 0.74 µM.

For `N#Cc1cc(O[C@@H](c2ccncc2)c2ccc(C(N)=O)cc2)cc2c1C(=O)CCO2` (single isomer, unassigned) [Example 101a, (*R)-4-(((5-cyano-4-oxochroman-7-yl)oxy)(pyridin-4-yl)methyl)benzamide], the values for the IC50 (in test [1]; against HLA-DRB1*0401) were > 15 µM and 0.96 µM, respectively. In turn, `CCCc1c(O[C@H](c2ccncc2)c2ccc(C(N)=O)cc2)ccc2c1OCCC2=O` (single isomer, unassigned) [Example 80b, (*S)-4-(((4-Oxo-8-propylchroman-7-yl)oxy)(pyridin-4-yl)methyl)benzamide] came in with an IC50 on HLA-DRB1*0401 of 0.96 µM.
